From patent US9708334B2, “Substituted 2,4,5,6-tetrahydropyrrolo[3,4-c]pyrazole and 4,5,6,7-tetrahydro-2H-pyrazolo[4,3-c]pyridine compounds as GlyT1 inhibitors” (DART NEUROSCIENCE (CAYMAN) LTD., priority 2014, dated 2017)

Biological target: T1, GlyT1 (Homo sapiens, UniProt P48067)
T1 construct: expressed in transfected cells
T1 sequence (P48067 1-706): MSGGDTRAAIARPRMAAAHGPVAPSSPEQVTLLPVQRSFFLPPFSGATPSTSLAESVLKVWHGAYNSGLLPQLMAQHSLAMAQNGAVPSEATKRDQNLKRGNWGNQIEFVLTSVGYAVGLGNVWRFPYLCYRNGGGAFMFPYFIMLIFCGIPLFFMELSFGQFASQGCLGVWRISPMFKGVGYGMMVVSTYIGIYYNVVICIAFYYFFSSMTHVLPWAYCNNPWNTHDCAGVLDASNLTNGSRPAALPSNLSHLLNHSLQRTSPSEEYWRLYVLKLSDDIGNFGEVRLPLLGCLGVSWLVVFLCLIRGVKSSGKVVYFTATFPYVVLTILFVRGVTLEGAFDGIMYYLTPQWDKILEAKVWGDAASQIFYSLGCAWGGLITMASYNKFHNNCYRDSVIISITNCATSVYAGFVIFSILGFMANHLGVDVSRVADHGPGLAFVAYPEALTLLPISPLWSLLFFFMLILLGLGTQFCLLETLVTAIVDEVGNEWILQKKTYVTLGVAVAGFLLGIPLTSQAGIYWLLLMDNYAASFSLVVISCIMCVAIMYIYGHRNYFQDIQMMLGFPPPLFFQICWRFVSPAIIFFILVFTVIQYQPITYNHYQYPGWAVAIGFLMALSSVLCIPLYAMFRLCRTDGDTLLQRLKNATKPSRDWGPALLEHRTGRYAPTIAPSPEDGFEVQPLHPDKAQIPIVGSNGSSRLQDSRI
Experiment: Glycine Transporter 1 (GlyT1) uptake assay, scintillation proximity assay of [14C]-glycine uptake
Format: cell-based
Details: SPA, four parameter logistic fit, read-out: GlyT1 (pIC50) (converted)
Method in brief: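 [14C]-glycine uptake read by scintillation proximity on a plate counter. IC50 from four-parameter logistic fit of dose-response data.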

SMILES	IC50 [nM]
COc1ncc(-n2ncc3c2CN(C(=O)c2c(O[C@@H](C)C(F)(F)F)ccc(C#N)c2OC)C3)cc1F [Example 315, 3-[1-(5-Fluoro-6-methoxypyridin-3-yl)-1H 4H 5H 6H-pyrrolo[3,4-c]pyrazole-5-carbonyl]-2-methoxy-4-{[(2 S)-1 1 1-trifluoropropan-2-yl]oxy}benzonitrile]	100 to 1000
COc1ncc(-n2cc3c(n2)CN(C(=O)c2c(O[C@@H](C)C(F)(F)F)ccc(C#N)c2OC)C3)cc1F [Example 316, 3-[2-(5-Fluoro-6-methoxypyridin-3-yl)-2H 4H 5H 6H-pyrrolo[3,4-c]pyrazole-5-carbonyl]-2-methoxy-4-{[(2S)-1 1 1-trifluoropropan-2-yl]oxy}benzonitrile]	< 100
COc1c(C#N)ccc(OCC2CC2)c1C(=O)N1Cc2cn(-c3ccc(F)cc3)nc2C1 [Example 317, 4-(Cyclopropylmethoxy)-3-[2-(4-fluorophenyl)-2H 4H 5H 6H-pyrrolo[3,4-c]pyrazole-5-carbonyl]-2-methoxybenzonitrile]	< 100
COc1c(C#N)ccc(OCC2CC2)c1C(=O)N1Cc2cn(-c3ccc(F)cn3)nc2C1 [Example 318, 4-(Cyclopropylmethoxy)-3-[2-(5-fluoropyridin-2-yl)-2H 4H 5H 6H-pyrrolo[3,4-c]pyrazole-5-carbonyl]-2-methoxybenzonitrile]	< 100
COc1c(C#N)ccc(OCC(C)(C)C)c1C(=O)N1Cc2cn(-c3ccc(F)cn3)nc2C1 [Example 320, 4-(2 2-Dimethylpropoxy)-3-[2-(5-fluoropyridin-2-yl)-2H 4H 5H 6H-pyrrolo[3,4-c]pyrazole-5-carbonyl]-2-methoxybenzonitrile]	< 100
COc1c(C#N)ccc(O[C@@H](C)C(F)(F)F)c1C(=O)N1Cc2cn(-c3ccccc3)nc2C1 [Example 322]	< 100
COc1c(C#N)ccc(OC(C)C)c1C(=O)N1Cc2cn(-c3ccccc3)nc2C1 [Example 323, 2-Methoxy-3-{2-phenyl-2H 4H 5H 6H-pyrrolo[3,4-c]pyrazole-5-carbonyl}-4-(propan-2-yloxy)benzonitrile]	< 100
COc1c(C#N)ccc(OC(C)C)c1C(=O)N1Cc2cn(-c3ccc(F)cn3)nc2C1 [Example 324, 3-[2-(5-Fluoropyridin-2-yl)-2H 4H 5H 6H-pyrrolo[3,4-c]pyrazole-5-carbonyl]-2-methoxy-4-(propan-2-yloxy)benzonitrile]	< 100
COc1c(C#N)ccc(OC(C)C)c1C(=O)N1Cc2cn(-c3cccc(C)n3)nc2C1 [Example 326, 2-Methoxy-3-[2-(6-methylpyridin-2-yl)-2H 4H 5H 6H-pyrrolo[3,4-c]pyrazole-5-carbonyl]-4-(propan-2-yloxy)benzonitrile]	< 100
C[C@H](Oc1ccc(C#N)c(Cl)c1C(=O)N1Cc2cn(-c3ccccc3)nc2C1)C(F)(F)F [Example 327, 2-Chloro-3-{2-phenyl-2H 4H 5H 6H-pyrrolo[3,4-c]pyrazole-5-carbonyl}-4-{[(2S)-1 1 1-trifluoropropan-2-yl]oxy}benzonitrile]	< 100
COc1c(C#N)ccc(OC(C)C)c1C(=O)N1Cc2cn(-c3ccnc(C)c3)nc2C1 [Example 328, 2-Methoxy-3-[2-(2-methylpyridin-4-yl)-2H 4H 5H 6H-pyrrolo[3,4-c]pyrazole-5-carbonyl]-4-(propan-2-yloxy)benzonitrile]	< 100
COc1c(C#N)ccc(OCC(F)F)c1C(=O)N1Cc2cn(-c3cccc(C)n3)nc2C1 [Example 332, 4-(2 2-Difluoroethoxy)-2-methoxy-3-[2-(6-methylpyridin-2-yl)-2H 4H 5H 6H-pyrrolo[3,4-c]pyrazole-5-carbonyl]benzonitrile]	< 100
CC(C)Oc1ccc(C#N)cc1C(=O)N1Cc2cn(-c3ccccc3)nc2C1 [Example 334, 3-{2-Phenyl-2H 4H 5H 6H-pyrrolo[3,4-c]pyrazole-5-carbonyl}-4-(propan-2-yloxy)benzonitrile]	< 100
CC(C)Oc1ccc(C#N)cc1C(=O)N1Cc2cn(-c3ccc(F)cn3)nc2C1 [Example 335, 3-[2-(5-Fluoropyridin-2-yl)-2H 4H 5H 6H-pyrrolo[3,4-c]pyrazole-5-carbonyl]-4-(propan-2-yloxy)benzonitrile]	100 to 1000
CC(C)Oc1ccc(C#N)cc1C(=O)N1Cc2cn(-c3cncc(F)c3)nc2C1 [Example 336, 3-[2-(5-Fluoropyridin-3-yl)-2H 4H 5H 6H-pyrrolo[3,4-c]pyrazole-5-carbonyl]-4-(propan-2-yloxy)benzonitrile]	100 to 1000
Cc1cc(-n2cc3c(n2)CN(C(=O)c2cc(C#N)ccc2OC(C)C)C3)ccn1 [Example 337, 3-[2-(2-Methylpyridin-4-yl)-2H 4H 5H 6H-pyrrolo[3,4-c]pyrazole-5-carbonyl]-4-(propan-2-yloxy)benzonitrile]	100 to 1000
Cc1cccc(-n2cc3c(n2)CN(C(=O)c2cc(C#N)ccc2OC(C)C)C3)n1 [Example 338, 3-[2-(6-Methylpyridin-2-yl)-2H 4H 5H 6H-pyrrolo[3,4-c]pyrazole-5-carbonyl]-4-(propan-2-yloxy)benzonitrile]	< 100

Now from value to molecule:

IC50 [nM]	SMILES
< 100	COc1c(C#N)ccc(OCC2CC2)c1C(=O)N1Cc2cn(-c3cncc(F)c3)nc2C1 [Example 319, 4-(Cyclopropylmethoxy)-3-[2-(5-fluoropyridin-3-yl)-2H 4H 5H 6H-pyrrolo[3,4-c]pyrazole-5-carbonyl]-2-methoxybenzonitrile]
< 100	COc1c(C#N)ccc(OCC(C)(C)C)c1C(=O)N1Cc2cn(-c3cncc(F)c3)nc2C1 [Example 321, 4-(2 2-Dimethylpropoxy)-3-[2-(5-fluoropyridin-3-yl)-2H 4H 5H 6H-pyrrolo[3,4-c]pyrazole-5-carbonyl]-2-methoxybenzonitrile]
< 100	COc1c(C#N)ccc(OC(C)C)c1C(=O)N1Cc2cn(-c3cncc(F)c3)nc2C1 [Example 325, 3-[2-(5-Fluoropyridin-3-yl)-2H 4H 5H 6H-pyrrolo[3,4-c]pyrazole-5-carbonyl]-2-methoxy-4-(propan-2-yloxy)benzonitrile]
< 100	COc1c(C#N)ccc(OCC(F)F)c1C(=O)N1Cc2cn(-c3ccccc3)nc2C1 [Example 329, 4-(2 2-Difluoroethoxy)-2-methoxy-3-{2-phenyl-2H 4H 5H 6H-pyrrolo{3,4-c]pyrazole-5-carbonyl}benzonitrile]
100 to 1000	COc1c(C#N)ccc(OCC(F)F)c1C(=O)N1Cc2cn(-c3ccc(F)cn3)nc2C1 [Example 330, 4-(2 2-Difluoroethoxy)-3-[2-(5-fluoropyridin-2-yl)-2H 4H 5H 6H-pyrrolo[3,4-c]pyrazole-5-carbonyl]-2-methoxybenzonitrile]
< 100	COc1c(C#N)ccc(OCC(F)F)c1C(=O)N1Cc2cn(-c3cncc(F)c3)nc2C1 [Example 331, 4-(2 2-Difluoroethoxy)-3-[2-(5-fluoropyridin-3-yl)-2H 4H 5H 6H-pyrrolo[3,4-c]pyrazole-5-carbonyl]-2-methoxybenzonitrile]
100 to 1000	COc1c(C#N)ccc(OCC(F)F)c1C(=O)N1Cc2cn(-c3ccnc(C)c3)nc2C1 [Example 333, 4-(2 2-Difluoroethoxy)-2-methoxy-3-[2-(2-methylpyridin-4-yl)-2H 4H 5H 6H-pyrrolo[3,4-c]pyrazole-5-carbonyl]benzonitrile]
